Entries after “also recorded” stand apart in the source; their conditions may differ.
Columns and labels:
SJL mice with EAE = assay: Axonal damage in SJL mice with EAE, SMI312/SMI32 immunohistochemistry of spinal cord; type: in vivo, mouse
Experimental: A9 (or the vehicle control) was administered orally.
Following treatment, the thoracic spinal cords were fixed in 4% PFA, embodied in paraffin and sectioned for IHC.

ERK [1] = assay: ERK activation in the brain; type: in vivo; details: observation, no data shown
ERK1 (p44) = ERK1 (p44) activation in NS20Y cells; type: cell-based, mouse
Experimental: (§1) Cell stimulation, immunoblotting, and immunoprecipitation: Cells or neurons are grown in 6-well or 12-well plates to 80-90% confluence. The cells are starved in serum-free DMEM overnight, and then incubated with receptor agonists at 37° C. for the indicated durations. In some experiments, signaling inhibitors are added 45 minutes before simulation. Incubation is terminated by placing the tissue culture cluster on ice and rapidly aspirating the medium, followed by the addition of ice-cold RIPA^+ buffer (50 mM Tris-HCl, pH 7.5, 150 mM NaCl, 1% NP-40, 0.5% deoxycholate, 0.1% SDS, 1 mM NaVO3, and protease inhibitor (Calbiochem, San Diego, Calif.)) and incubation for 15 minutes with shaking. After centrifugation (14,000×g at 4° C. for 15 minutes), the supernatant is collected and the protein concentration is measured and adjusted using RIPA^+ buffer. Samples (30 μl) with equal amounts of protein mixed with Laemmli loading buffer are denatured at 70° C. for 10 minutes and separated by SDS-PAGE. […] The proteins are transferred to PVDF membrane (Millipore), detected with the primary antibodies (including anti-active ERK; anti-p-Tyr clone 4G10, Upstate; anti-TH; anti-DAT, sigma, anti-β-tubulin, etc.) and visualized with the SuperSignal™ West Pico chemiluminescent kit (Pierce Biotechnology, Rockford, Ill.). The intensity of bands is quantified using ImageQuant™ 5.2 (Amersham). […]

SH-SY5Y cells = assay: Neurite length in NGF-treated SH-SY5Y neuroblastoma cells; type: cell-based, human; details: 96 and 168 hours; for Neurite length / neurite elongation: SH-SY5Y + NGF 10 ng/ml, FK506 100 nM, A9 10 nM, 100 nM and 1 μM
Experimental: Analysis of neurite length in SH-SY5Y neuroblastoma cells: SH-SY5Y neuroblastoma cells develop axonal-like processes on treatment with NGF. For analysis of process length, cells (20 fields/well) are randomly photographed at 96 and 168 hours. Neurite lengths are measured on photographic prints using a Houston Instrument HI-PAD digitizing tablet connected to a computer with appropriate software (Bioquant IV); only processes more than twice the cell body length are measured. Data from identically treated wells are combined. […] Histograms are compared using a Mann-Whitney U test (α=0.05), which makes no assumptions about the shape of the distribution.
As disclosed herein, high and sustained ERK activation induces neurite growth in […] neuroblastoma cells and protects neuronal cells from neurotoxins. To test this, SH-SY5Y human neuroblastoma cells were used, which can be induced into neuron-like phenotype by NGF treatment. This is an established method for measuring neurite growth-promoting activity in vitro in Dr. Gold's lab (Gold et al., Neurosignals. 13:122-129, 2004; Gold et al., Exp. Neurol. 147:269-278, 1997). […] Representative micrographs at 168 hours for vehicle (control), NGF (10 ng/ml), and NGF (10 ng/ml) plus A9 (100 nM) are shown in FIG. 5B.

ERK [2] = assay: ERK activation in primary rat neostriatal neuron cultures; type: cell-based
Experimental: Primary Neuronal Cultures: The substantia nigra or striatal region is dissected from 4 day-old Sprague-Dawley rats and incubated in minimum essential medium (MEM) containing 20 U/ml papain for 2 hours at 37° C. The tissue is then triturated using fire-polished Pasteur pipettes in MEM supplemented with 10% fetal bovine serum, 0.45% glucose, […] insulin, 0.5 mM glutamine, 100 U/ml penicillin, and 100 μg/ml streptomycin. Cells are plated on 18 mm diameter poly-D-lysine-coated glass coverslips (Fisher 12-545-84 18cir-1D) at a density of 75,000 cells per coverslip for immunofluorescence imaging or in 12-well or 6-well tissue culture plates for immunoblotting studies. […]
Cell stimulation, immunoblotting, and immunoprecipitation: Cells or neurons are grown in 6-well or 12-well plates to 80-90% confluence. […] After centrifugation (14,000×g at 4° C. for 15 minutes), the supernatant is collected and the protein concentration is measured and adjusted using RIPA^+ buffer. […] The proteins are transferred to PVDF membrane (Millipore), detected with the primary antibodies (including anti-active ERK; anti-p-Tyr clone 4G10, Upstate; anti-TH; anti-DAT, sigma, anti-β-tubulin, etc.) and visualized with the SuperSignal™ West Pico chemiluminescent kit (Pierce Biotechnology, Rockford, Ill.). The intensity of bands is quantified using ImageQuant™ 5.2 (Amersham). […]

ERK [3] = assay: ERK activation in HEK293 cells; type: cell-based, human
Experimental: as §1, with “buffer.” for “buffer. Samples (30 μl) with equal amounts of protein mixed with Laemmli loading buffer are denatured at 70° C. for 10 minutes and separated by SDS-PAGE.”
It was determined that A9 could activate ERK while characterizing the transactivation of receptor tyrosine kinases by the dopamine D2 receptor.

ERK2 (p42) = ERK2 (p42) activation in NS20Y cells; type: cell-based, mouse
Experimental: as §1

Question: With `CC(C)(C)c1cc(C=C(C#N)C#N)cc(C(C)(C)C)c1O` [A9, tyrphostin A9] as the compound, how does the “Damaged axons, SMI32 staining” value (SJL mice with EAE; SJL mice with EAE, 1 μg A9 orally) read?
Answer: The value was “effectively reduced; also recorded: reduces the presence of damaged axons”.

Question: And the “Axonal damage in the spinal cord” value (SJL mice with EAE; SJL mice, EAE induced with PLP139-151, 1 μg A9 orally)?
Answer: The value was “reduced the axonal damage”.

Question: What about the “Ability to cross the blood brain barrier” value (SJL mice with EAE; after oral administration, inferred from CNS effect in EAE mice) of the same compound?
Answer: The value was “has the ability to cross the blood brain barrier”.

Question: What about the “ERK activation in the brain” value (ERK [1]) of the same compound?
Answer: The value was “can cause ERK activation in the brain”.

Question: And the “ERK1 (p44) activation” value (ERK1 (p44))?
Answer: Its value is “activated ERK1 (p44) the most”.

Question: What about the “Neurite length / neurite elongation” value (SH-SY5Y cells) of the same compound?
Answer: Its value is “dramatically increased in length”.

Question: What about the “Neurite length / neurite elongation” value (SH-SY5Y cells; listed as tyrphostin A9) of the same compound?
Answer: The value was “stimulated neurite elongation”.

Question: What about the “Distribution of neurite length (cumulative histograms), shift to the right versus NGF-treated” value (SH-SY5Y cells; SH-SY5Y) of the same compound?
Answer: The value was “more pronounced”.

Question: And the “A9-stimulated ERK activation” value (ERK [2])?
Answer: The value was “also observed”.

Question: And the ERK activation (ERK [3])?
Answer: Its ERK activation is “but not in HEK293”.

Question: And the “D2 receptor-induced activation of ERK” value (ERK [3]; A9 pretreatment)?
Answer: The value was “prevented D2 receptor-induced activation of ERK”.

Question: What about the “ERK2 (p42) stimulation” value (ERK2 (p42)) of the same compound?
Answer: The value was “little stimulation on ERK2 (p42); also recorded: little effect on ERK2”.
